Test [1] can be described thus: Liquid-liquid extraction of Na^+ from aqueous LiCl/NaCl solution, ion-selective electrode analysis. As to conditions: 3 mL neat compound mixed with 3 mL aqueous solution containing 100 ppm LiCl and 100 ppm NaCl; aqueous phase analyzed by ion-selective electrode. As to the method: (§1) 3 ml of the compound [F·Me·Me] was added neat to 3 mL of an aqueous solution containing 100 ppm LiCl and 100 ppm NaCl. After vigorous mixing of the organic and aqueous phases in a separatory funnel, the phases were separated, and the aqueous phase was analyzed using ion-selective electrodes for both Li^+ and Na^+.

Test [2] in a line: Liquid-liquid extraction of Li^+ from aqueous LiCl/NaCl solution, ion-selective electrode analysis. As to conditions: 3 mL neat compound mixed with 3 mL aqueous solution containing 100 ppm LiCl and 100 ppm NaCl; aqueous phase analyzed by ion-selective electrode. As to the method:
as §1

We go through 1 compound from patent US20240424426A1, “SOLVENTS FOR SELECTIVE COMPLEXATION OF METAL CATIONS” (THE BOARD OF TRUSTEES OF THE UNIVERSITY OF ALABAMA, priority 2023, published 2024).

For `COCCOCC(COCC(F)(F)F)OCCOC` (centres unmarked) [[F·Me·Me]], in test [1], the “Na^+ extracted by the compound” value is recorded as 7.3%. In addition, the “Li^+ extracted by the compound” value in test [2] worked out at 26.6%.
